“Also recorded” adds a separate entry of the source. Blank lines part the entries; values can stand above or below the compound they belong to. Where a SMILES comes first, the peptide text is derived from it. Bridges are numbered along the chain shown (N, C = ends). Roman numbers before positions name the chains, in order. Where no end group is shown, it is not given here. [ ]: non-standard residue; d: D form. AEEA = NCCOCCOCC(=O)O
Legend:
TNFα = experiment: TNFα-induced cytotoxicity (control); format: cell-based; details: specificity control
Experimental: (§1) In these assays, CD40L induced CD86 expression in a concentration-dependent manner in the absence of a peptidyl inhibitor of the present invention with an EC50 value of about 9 nM (FIG. 6d, 6e). As a control in these assays, LPS-induced expression of CD86 mediated by the Toll-like receptors TLR 2/4, and TNFα-induced cytoxicity, were also assayed to exclude effects mediated by ligands other than CD40L.

[1] = target: CD40L-induced CD86 expression on primary B-cells (Homo sapiens, UniProt P29965); experiment: Inhibition of CD40L-induced CD86 expression on primary B-cells (FACS); format: cell-based; details: for inhibition of CD40L-induced CD86 expression (qualitative): figure legends; for EC50: monomeric and dimeric peptides, Table 7, read-out: EC50
Sequence of CD40L-induced CD86 expression on primary B-cells (P29965 whole entry): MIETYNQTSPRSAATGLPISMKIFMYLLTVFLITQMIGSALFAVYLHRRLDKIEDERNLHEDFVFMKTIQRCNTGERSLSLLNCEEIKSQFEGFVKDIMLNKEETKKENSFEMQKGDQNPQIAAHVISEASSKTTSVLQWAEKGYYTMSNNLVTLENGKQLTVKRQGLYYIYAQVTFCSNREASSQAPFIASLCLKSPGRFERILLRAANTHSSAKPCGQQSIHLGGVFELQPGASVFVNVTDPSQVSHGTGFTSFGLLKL
Sequence of CD40L-induced CD86 expression on primary B-cells (P25942 21-277 partner): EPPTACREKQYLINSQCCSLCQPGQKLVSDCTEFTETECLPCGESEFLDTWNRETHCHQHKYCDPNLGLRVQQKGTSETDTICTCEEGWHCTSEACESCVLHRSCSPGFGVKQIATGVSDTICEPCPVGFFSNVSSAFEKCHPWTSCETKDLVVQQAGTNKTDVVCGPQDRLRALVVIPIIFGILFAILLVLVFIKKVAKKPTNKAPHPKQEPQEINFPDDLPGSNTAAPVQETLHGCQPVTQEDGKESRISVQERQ
Experimental: In one example, the ability of a peptide, analog or derivative of the invention to inhibit or reduce or delay expression of CD86 on primary B-cells was determined in the presence and absence of the peptides, analogs and derivatives of the invention. In particular, CD86 expression was determined by FACS.
as §1
In a similar series of bioassays, dimeric forms of the CD40L peptide inhibitors were also tested for their ability to inhibit or reduce CD40L-induced expression of CD86 on primary B-cells.

CD40L/CD40-Fc = target: T1, CD40L/CD40-Fc (Homo sapiens, UniProt P29965); experiment: Chemiluminescent proximity assay (Alphascreen) of CD40L-CD40 interaction; format: binding; details: for inhibition of CD40L-CD40 interaction relative to monomeric peptide controls: qualitative; for EC50: monomeric and dimeric peptides, Table 5, read-out: EC50
T1 sequence (P29965 113-261 limits assumed): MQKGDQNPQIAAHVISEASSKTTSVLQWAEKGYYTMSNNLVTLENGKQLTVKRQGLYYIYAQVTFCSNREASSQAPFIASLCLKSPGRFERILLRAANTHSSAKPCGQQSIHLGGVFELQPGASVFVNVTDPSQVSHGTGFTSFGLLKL
Experimental: In one example, the Alphascreen assay (PerkinElmer) was employed according to the manufacturer's instructions.
Homodimers and heterodimers were also assayed by chemiluminescent proximity assay for their ability to inhibit CD40L-CD40 interaction.

[2] = test system: T cells from transgenic D011.10 mice; experiment: Antigen-specific T-cell proliferation assay; format: cell-based; details: 10 μM or 20 μM peptide
Experimental: Briefly, pooled DLN (consisting parathymic and posterior mediastinal nodes) were collected from transgenic D011.10 mice engineered to express ovalbumin-specific T cell receptors (TCRs). Enriched T-cell suspensions were prepared and stimulated with 10 μg/ml ovalbumin in the presence or absence of 10 μM or 20 μM concentration of anti-CD40L peptidyl inhibitors. The peptides tested were PEGylated serine derivatives and/or chiral analogs of peptides CD40L M1—6, CD40L M1—9, CD40L M1—18, CD40L M1—30, CD40L M1—42, CD40L M1—50, CD40L M7—82 and CD40L M7—206. Cells were cultured for 24-72 hrs and then pulsed with [^3H]thymidine for another 24 hr to measure T-cell proliferation.

CD40L = target: T2, CD40L (Homo sapiens, UniProt P29965); experiment: Octet Red label-free association/dissociation analysis; format: binding; details: versus CD40L M1—206
T2 construct: measures of the “on” and “off” rates of the peptides relative to soluble CD40L
T2 sequence (P29965 113-261 limits assumed): T1 sequence (P29965 113-261 limits assumed)
Experimental: Label-free analyses of the associations and dissociations of base peptides and serine derivatives of base peptides with the CD40L target protein were performed using the Octet Red system (ForteBio, Inc., USA) according to the manufacturer's instructions. These analyses provide kinetic constants of CD40L binding activity, especially the association rate constant (Ka) and dissociation rate constant (Kd) of binding, i.e., measures of the “on” and “off” rates of the peptides relative to soluble CD40L.

Compound: CC[C@H](C)[C@H](NC(=O)[C@H](CO)NC(=O)[C@H](Cc1c[nH]c2ccccc12)NC(=O)[C@H](CCC(N)=O)NC(=O)[C@@H](NC(=O)[C@@H]1CCCN1C(=O)[C@H](Cc1ccccc1)NC(=O)[C@H](Cc1ccccc1)NC(=O)[C@H](Cc1c[nH]c2ccccc12)NC(=O)CNC(=O)[C@H](Cc1ccc(O)cc1)NC(=O)[C@H](CCCCN)NC(=O)[C@H](CC(C)C)NC(=O)[C@@H](NC(=O)[C@H](Cc1c[nH]cn1)NC(=O)[C@H](CO)NC(=O)[C@H](CCCNC(=N)N)NC(=O)[C@H](Cc1ccc(O)cc1)NC(=O)[C@@H]1CCCN1C(=O)[C@@H](NC(=O)[C@H](Cc1ccccc1)NC(=O)[C@@H]1CCCN1C(=O)[C@@H](N)CC(C)C)C(C)C)C(C)C)C(C)C)C(=O)N[C@@H](Cc1ccccc1)C(=O)N[C@@H](C)C(=O)N[C@H](C(=O)N[C@@H](CC(C)C)C(=O)N1CCC[C@H]1C(=O)N[C@@H](Cc1ccccc1)C(=O)N[C@@H](CCC(N)=O)C(=O)N[C@@H](Cc1ccc(O)cc1)C(=O)N[C@@H](CC(C)C)C(=O)N[C@@H](Cc1c[nH]cn1)C(=O)N[C@@H](CCCNC(=N)N)C(=O)N[C@@H](CO)C(=O)N[C@@H](CCCNC(=N)N)C(=O)O)C(C)C [CD40L M1_18s] (H-LPFVPYRSHVLKYGWFFPVQWSIFAVLPFQYLHRSR-OH; N-terminus and C-terminus assumed)
- inhibition of rTNFα-induced cytoxicity (TNFα; listed as M1—18*S): lack of inhibition
- inhibition of rTNFα-induced cytoxicity (TNFα; listed as M1—18S): no significant inhibition

- inhibition of CD40L-induced CD86 expression (qualitative) [1]: enhanced inhibition
- inhibition of CD40L-CD40 interaction relative to monomeric peptide controls (CD40L/CD40-Fc): enhanced inhibition
Compound: CC[C@H](C)[C@H](NC(=O)[C@H](CO)NC(=O)[C@H](Cc1ccccc1)NC(=O)[C@@H](NC(=O)[C@H](CC(N)=O)NC(=O)[C@H](CCCCN)NC(=O)[C@@H](NC(=O)[C@H](CO)NC(=O)[C@H](Cc1ccccc1)NC(=O)[C@@H]1CCCN1C(=O)[C@H](Cc1c[nH]cn1)NC(=O)COCCOCCNC(=O)[C@@H](N)CSSC[C@H](N)C(=O)NCCOCCOCC(=O)N[C@@H](Cc1c[nH]cn1)C(=O)N1CCC[C@H]1C(=O)N[C@@H](Cc1ccccc1)C(=O)N[C@@H](CO)C(=O)N[C@H](C(=O)N[C@@H](CCCCN)C(=O)N[C@@H](CC(N)=O)C(=O)N[C@H](C(=O)N[C@@H](Cc1ccccc1)C(=O)N[C@@H](CO)C(=O)N[C@H](C(=O)N[C@@H](Cc1c[nH]c2ccccc12)C(=O)N[C@@H](CC(N)=O)C(=O)N[C@@H](Cc1ccccc1)C(=O)N[C@@H](Cc1ccccc1)C(=O)N[C@@H](CO)C(=O)N[C@H](C(=O)N[C@@H](Cc1ccc(O)cc1)C(=O)O)C(C)C)[C@@H](C)CC)C(C)C)[C@@H](C)CC)[C@@H](C)CC)C(C)C)C(=O)N[C@@H](Cc1c[nH]c2ccccc12)C(=O)N[C@@H](CC(N)=O)C(=O)N[C@@H](Cc1ccccc1)C(=O)N[C@@H](Cc1ccccc1)C(=O)N[C@@H](CO)C(=O)N[C@H](C(=O)N[C@@H](Cc1ccc(O)cc1)C(=O)O)C(C)C [Cys_M1_6S homodimer] (I: H-C[AEEA]HPFSIKNVFSIWNFFSVY-OH / II: H-C[AEEA]HPFSIKNVFSIWNFFSVY-OH; disulfide I:1-II:1; C-terminus assumed)

Compound: HPFSIKNVFSIWNFFSVY [CD40L M1_6s]
- inhibition of rTNFα-induced cytoxicity (TNFα): lack of inhibition; also recorded: no significant inhibition

- inhibition of CD40L-induced CD86 expression (qualitative) [1]: enhanced inhibition
- inhibition of CD40L-CD40 interaction relative to monomeric peptide controls (CD40L/CD40-Fc): enhanced inhibition
Compound: I: H-C[AEEA]LLLFFFSPPFSIFSFSLTTLS / II: H-C[AEEA]HPFSIKNVFSIWNFFSVY (disulfide I:1-II:1) [Cys_M1_6S-Cys_M1_189S heterodimer]

Compound: AQWWHHRFSFLGAIQFFERGAAD [CD40L M1_30rd]
- relative performance in T-cell proliferation assay [2]: best-performing

- EC50 [1]: 176 nM
- EC50 (CD40L/CD40-Fc): 177 nM
Compound: CC[C@H](C)[C@H](NC(=O)[C@H](CO)NC(=O)[C@H](Cc1ccccc1)NC(=O)[C@@H]1CCCN1C(=O)[C@@H]1CCCN1C(=O)[C@H](CO)NC(=O)[C@H](Cc1ccccc1)NC(=O)[C@H](Cc1ccccc1)NC(=O)[C@H](Cc1ccccc1)NC(=O)[C@H](CC(C)C)NC(=O)[C@H](CC(C)C)NC(=O)[C@@H](N)CC(C)C)C(=O)N[C@@H](Cc1ccccc1)C(=O)N[C@@H](CO)C(=O)N[C@@H](Cc1ccccc1)C(=O)N[C@@H](CO)C(=O)N[C@@H](CC(C)C)C(=O)N[C@H](C(=O)N[C@H](C(=O)N[C@@H](CC(C)C)C(=O)N[C@@H](CO)C(=O)O)[C@@H](C)O)[C@@H](C)O [Peptide M7_189S] (H-LLLFFFSPPFSIFSFSLTTLS-OH)

Compound: SKVRMQFDIINFPVNVGFLVFSH [CD40L M1_42rd]
- relative performance in T-cell proliferation assay [2]: best-performing

Compound: PFTWRPTIFWIIQLIVYMRHFGGGGSRSELLRENICRYVSLFDHPLQRNTPLDELRFVIFDTETSGFDLVKDRILSIR [CD40L D1_0014]
- fold higher affinity for CD40L than base monomeric peptide (CD40L): 6 fold

- EC50 [1]: 564 nM
- EC50 (CD40L/CD40-Fc): 564 nM
Compound: CC(C)C[C@H](NC(=O)[C@H](Cc1ccc(O)cc1)NC(=O)[C@H](CC(=O)O)NC(=O)[C@H](CCCNC(=N)N)NC(=O)[C@H](CCCNC(=N)N)NC(=O)[C@H](Cc1ccccc1)NC(=O)[C@H](CO)NC(=O)[C@H](CO)NC(=O)[C@H](Cc1ccc(O)cc1)NC(=O)[C@H](Cc1ccccc1)NC(=O)[C@H](CCCNC(=N)N)NC(=O)[C@H](Cc1ccccc1)NC(=O)[C@H](CC(C)C)NC(=O)[C@H](Cc1ccccc1)NC(=O)[C@H](Cc1ccccc1)NC(=O)[C@H](CC(C)C)NC(=O)[C@H](CC(N)=O)NC(=O)[C@H](Cc1ccc(O)cc1)NC(=O)[C@H](CCCNC(=N)N)NC(=O)[C@@H]1CCCN1C(=O)[C@@H]1CCCN1)C(=O)N[C@@H](Cc1ccc(O)cc1)C(=O)N[C@@H](Cc1ccccc1)C(=O)O [CD40L M1_9s] (H-PPRYNLFFLFRFYSSFRRDYLYF-OH; N-terminus and C-terminus assumed)
- inhibition of rTNFα-induced cytoxicity (TNFα): lack of inhibition; also recorded: no significant inhibition

— patent US8802634B2, “CD40-L Inhibitory Peptides” (Phylogica Limited, priority 2008, dated 2014)
